Columns and labels:
[1] = tested on: ddY male mice; test: Ameliorative activity against damage of cerebral hypoxia (reduced pressure); assay type: in vivo; settings: i.p.; 30 mg/kg compound (I) and ifenprodil tartrate, 16 mg/kg phentolamine
Description: Thirty mg/kg each of compound (I) (lactate) and ifenprodil tartrate and 16 mg/kg of phentolamine, which is an a-adrenoceptor blocker, were intraperitoneally administered to ddY male mice, respectively. […] Time from start of reduction of pressure until stop of respiration in the mice was measured. The control group was drug-untreated.

[2] = tested on: α2-adrenoceptor; test: Antagonism of clonidine (α2-agonist) contraction in saphenous vein; assay type: cell-based, Mongrel dogs; settings: clonidine
From the text: (§1) In this experiment, phenylephrine and clonidine were used as al-agonist and a2-agonist, respectively, and these agonists were cumulatively applied to obtain a dose-response curve.

[3] = tested on: α1-adrenoceptor; test: Antagonism of phenylephrine (α1-agonist) contraction in saphenous vein; assay type: cell-based, Mongrel dogs; settings: compared by pA2 value
From the text: as §1

[4] = tested on: platelets of rabbit; test: Fluidity of platelet membrane (fluorescence polarization); assay type: cell-based; parameters: Fluorescence polarization: unit not given here; settings: fluidity increases as value decreases
From the text: The activity of compound (I) (lactate) and ifenprodil tartrate against the fluidity of platelet membrane was examined according to a known method (Biochimica et Biophysica Acta, vol. 798, page 210, 1984) using platelets of rabbit and using n-butyl alcohol as a positive control.

[5] = tested on: male mice; test: Serum total cholesterol and β-lipoprotein in mice fed high cholesterol food; assay type: in vivo; settings: 200 mg/kg oral on 6th and 7th day, high cholesterol food 7 days, three male mice
Description: Three male mice were fed high cholesterol food for 7 days and 200 mg/kg of compound (I) was orally administered on the 6th day and the 7th day. After a fast over night from the 7th day, measurements of the total cholesterol in serum (Abell et al, "Standard Method of Clinical Chemistry", vol. 2, page 26, […], published by Academic Press; Kanai et al, "[…]", vol. 7, page 64, 1978, published by Kanehara Shuppan) and the amount of β-lipoprotein (Fried-Hoeflmayer, Klin. Wschr., vol. 41, page 246, 1963; Kanai et al, "Rinsho Kensaho Teiyo", vol. 7, page 79, 1978, published by Kanehara Shuppan) were conducted. The control group was compound (I)-untreated.

[6] = Acute toxicity (LD50); settings: mouse, in vivo, mice
[7] = tested on: mice; test: Protective action on death caused by endotoxin shock; assay type: in vivo; settings: for Number of survival after administration of endotoxin: of 15 (Compound (I)) or 14 (ifenprodil) animals
From the text: Compound (I) and ifenprodil tartrate were orally administered to mice and the protective action on death due to endotoxin shock was examined in accordance with a known method (Folia pharmacol. japon, vol. 86, page 17, 1985). The control group was drug-untreated.

[8] = tested on: male mice; test: Isoproterenol-induced tachycardia; assay type: in vivo; settings: 25 mg/kg oral, 30 minutes before 0.01 mg/kg isoproterenol i.v.; three male mice
Description: 25 mg/kg of compound (I) was orally administered to three male mice. After 30 minutes from administration, 0.01 mg/kg of isoproterenol, which is a β-agonist, was intravenously administered, and the effect of compound (I) on tachycardia induced by isoproterenol was observed. The control group was compound (I) - untreated.

[9] = tested on: ddY male mice; test: Thromboembolic respiratory depression induced by ADP; assay type: in vivo; settings: 30 mg/kg oral, ADP 40 mg/kg i.v., Compound (I) = erythro form
Description: The degree of formation of platelet thrombi in the pulmonary vessels of mice induced by intravenous administration of ADP can be measured based on the decrease in the respiratory rate. The anti-platelet thrombotic action of test drugs can be evaluated by using this decrease in the respiratory rate as a standard. […] Relative respiratory rate (%) was calculated according to the following formula. [formula] (cf. "Thrombosis Research", Vol. 35, Page 311, 1984)

CC(C(O)c1ccc(OCc2ccccc2)cc1)N1CCC(Cc2ccccc2)CC1 (stereo not drawn) [Compound (I), 2-(4-benzylpiperidino)-l-(4-benzyloxyphenyl)propan-l-ol]
effect on survival time (cerebral hypoxia) [1]: markedly prolongs survival time | antagonism on the α2-agonist ([2]; concentration of 10^-5 M): non- competitive antagonism | antagonism on the α2-agonist ([2]; concentration of 10^-6 M): No competitive antagonism is recognized | competitive antagonism on the α1-agonist relative to that of ifenprodil [3]: about 1/15 | competitive antagonism on the α1-agonist relative to that of prazosin [3]: about 1/8 | Fluorescence polarization ([4]; 1 µM): 2±4 | Fluorescence polarization ([4]; 10 µM): 0±8 | Fluorescence polarization ([4]; 30 µM): -2±0 | Fluorescence polarization ([4]; 100 µM): -22±7 | Reduction % as compared with control group Total cholesterol ([5]; serum): 8% | Reduction % as compared with control group β-lipoprotein [5]: 18% | LD50 ([6]; iv, venous injection): > 70 mg/kg | LD50 ([6]; oral): > 1200 mg/kg | Number of survival after administration of endotoxin ([7]; 70 mg/kg oral, 18 hr): 12 | Number of survival after administration of endotoxin ([7]; 70 mg/kg oral, 20 hr): 9 | Number of survival after administration of endotoxin ([7]; 70 mg/kg oral, 22 hr): 8 | Number of survival after administration of endotoxin ([7]; 70 mg/kg oral, 24 hr): 5 | Number of survival after administration of endotoxin ([7]; 70 mg/kg oral, 48 hr): 1 | Number of survival after administration of endotoxin ([7]; 200 mg/kg oral, 18 hr): 13 | Number of survival after administration of endotoxin ([7]; 200 mg/kg oral, 20 hr): 13 | Number of survival after administration of endotoxin ([7]; 200 mg/kg oral, 22 hr): 10 | Number of survival after administration of endotoxin ([7]; 200 mg/kg oral, 24 hr): 7 | Number of survival after administration of endotoxin ([7]; 200 mg/kg oral, 48 hr): 5 | protective action on the death (endotoxin shock) ([7]; oral, mice, compound (I) at 200 mg/kg): remarkable protective action on the death | Inhibition % of isoproterenol-induced tachycardia [8]: 23% | Relative respiratory rate (%) ([9]; 1/3 hr after administration): 53.1 ±11.7 (n=7) % | Relative respiratory rate (%) ([9]; 1 hr after administration): 51.2 ±5.6 (n=10) % | Relative respiratory rate (%) ([9]; 2 hr after administration): 52.8 ±7.4 (n=10) % | Relative respiratory rate (%) ([9]; 3 hr after administration): 49.0 ±8.4(*) (n=9) % | Relative respiratory rate (%) ([9]; 5 hr after administration): 41.9 ±11.5 (n=8) %
